In patent publication US7592352B2, “Substituted thieno and furo-pyridines” (SmithKline Beecham Corporation, priority 2003, dated 2009):

What was measured:
Type in all cases: biochemical
human EphB4 = target: T1, human EphB4 (Homo sapiens, UniProt P54760); test: EphB4 enzyme assay (Scintillation Proximity Assay); conditions: GST-EphB4, 1 uM ATP, SPA; pIC50 = -log10(IC50) in Molar
T1 construct: human EphB4 (amino acids 600-914, BR # 21454)
T1 sequence (P54760 600-914): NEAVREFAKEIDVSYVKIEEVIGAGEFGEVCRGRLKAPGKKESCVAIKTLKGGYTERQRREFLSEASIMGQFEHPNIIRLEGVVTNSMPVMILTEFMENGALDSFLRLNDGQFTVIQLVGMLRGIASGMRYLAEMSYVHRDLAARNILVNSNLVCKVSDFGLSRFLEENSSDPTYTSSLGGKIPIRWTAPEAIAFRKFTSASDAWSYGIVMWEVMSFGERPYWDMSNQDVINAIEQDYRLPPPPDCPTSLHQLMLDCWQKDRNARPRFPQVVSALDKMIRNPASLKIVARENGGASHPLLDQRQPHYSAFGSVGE
Experimental: The EphB4 enzyme assay used Scintillation Proximity Assay technology to measure enzyme activity. This method measured the ability of the purified enzymes to catalyse the transfer of the γ-phosphate from ATP onto tyrosine residues in a biotinylated synthetic peptide. […] Each reaction was stopped by the addition of 0.1 mg Streptavidin SPA beads in 100 mM EDTA/1×PBS, pH 7.2. The signal was measured using a Wallac Trilux scintillation counter (Wallac). The percent inhibition of activity was calculated relative to positive (C1) and negative (C2) control wells using, 100*(1−(U1−C2)/(C1−C2)). The concentration of test compound was determined using the equation, y=((Vmax*x)/(K+x))+Y2, where “K” was equal to the IC50. The IC50 values were converted to pIC50 values, i.e., −log IC50 in Molar concentration.

human TIE2 = target: T2, human TIE2 (Homo sapiens, UniProt Q02763); test: TIE-2 enzyme assay (LANCE method); conditions: GST-TIE2, 80 uM ATP, pIC50 = -log10(IC50) in Molar
T2 construct: made in house
Text: The TIE-2 enzyme assay used the LANCE method (Wallac) and GST-TIE2, baculovirus expressed recombinant constructs of the intracellular domains of human TIE2 (amino acids 762-1104, GenBank Accession # L06139) tagged by GST). The method measured the ability of the purified enzymes to catalyse the transfer of the γ-phosphate from ATP onto tyrosine residues in a biotinylated synthetic peptide, D1-15 (biotin-C6-LEARLVAYEGWVAGKKKamide). This peptide phosphorylation was detected using the following procedure: for enzyme preactivation, GST-TIE2 was incubated for 30 mins at room temperature with 2 mM ATP, 5 mM MgCl2 and 12.5 mM DTT in 22.5 mM HEPES buffer (pH7.4). Preactivated GST-TIE2 was incubated for 30 mins at room temperature in 96 well plates with 1 uM D1-15 peptide, 80 uM ATP, 10 mM MgCl2, 0.1 mg/ml BSA and the test compound (diluted from a 10 mM stock in DMSO, final DMSO concentration was 2.4%) In 1 mM HEPES (pH7.4). The reaction was stopped by the addition of EDTA (final concentration 45 mM). Streptavidin linked-APC (allophycocyanin, Molecular Probe) and Europium-labeled anti-phosphorylated tyrosine antibody (Wallac) were then added at the final concentration of 17 ug/well and 2.1 ug/well, respectively. The APC signal was measured using an ARVO multilabel counter. (Wallac Berthold Japan). The percent inhibition of activity was calculated relative to blank control wells. The concentration of test compound that inhibits 50% of activity (IC50) was interpolated using nonlinear regression (Levernberg-Marquardt) and the equation, y=Vmax (1−x/(K+x))+Y2, where “K” was equal to the IC50. The IC50 values were converted to pIC50 values, i.e., −log IC50 in Molar concentration.

Src = target: T3, Src (Homo sapiens, UniProt P12931); test: Src enzyme assay (HTRF); conditions: N-85 Src, 10 μM ATP, pIC50 = -log10(IC50) in Molar
T3 construct: precede the first globular domain (amino acids 86-536, BR# 455)
Text: The Src enzyme assay used Homogeneous Time Resolved Fluorescence (HTRF) assay technology to measure the enzyme activity. HTRF is based on fluorescence resonance energy transfer between a Europium-labeled phospho-tyrosine antibody (donor) and Allophycocyanin (APC) conjugated to streptavidin (acceptor). This method measured the ability of the purified enzymes to catalyze the transfer of the γ-phosphate from ATP onto tyrosine residues in a biotinylated synthetic peptide. The peptide used for the Src enzyme activity assay was biotin-(6-amino caproic acid)-AAAQQIYGQI-NH2. The enzyme used was baculovirus expressed N-85 Src with the deletion of first 85 amino acids, which precede the first globular domain (amino acids 86-536, BR# 455).
To preactivate enzyme, 180 μM N-85 Src was incubated with 5 mM ATP and 50 mM MgCl2 for 40 min on ice. The preactivated enzyme (0.4 nM final concentration) was then incubated for 30 min at room temperature in either 96-well or 384-well plates containing 200 nM peptide, 10 μM ATP, 0.05 mg/ml MgCl2, and test compound in 0.1 M HEPES pH 7.5. Each reaction was first stopped by the addition of 45 mM EDTA in 0.1 M HEPES pH7.5, then, HTRF reagent was added to measure the signal. After 10 min incubation at room temperature, the plates were read at 665 nm on a Wallac Victor reader with a time delay. The percent inhibition of activity was calculated relative to positive (C1) and negative (C2, EDTA added) control wells using, 100*(1−(U1−C2)/(C1−C2)). The concentration of test compound yielding 50% inhibition was determined using the equation, y=((Vmax*x)/(K+x))+Y2, where “K” was equal to the IC50. The IC50 values were converted to pIC50 values, i.e., −log IC50 in Molar concentration.

VEGFR-2 = target: T4, VEGFR-2 (Homo sapiens, UniProt P35968); test: VEGFR-2 enzyme assay (LANCE method); conditions: GST-VEGFR2, 75 uM ATP, pIC50 = -log10(IC50) in Molar
T4 construct: GST-VEGFR2, baculovirus expressed recombinant constructs of the intracellular domains; made in house
Experimental: The VEGF enzyme assay used the LANCE method (Wallac) and GST-VEGFR2, baculovirus expressed recombinant constructs of the intracellular domains of human […] tagged by GST. […] The reaction was stopped by the addition of EDTA (final concentration 50 mM). […] The APC signal was measured using an ARVO multilabel counter (Wallac Berthold, Japan). The percent inhibition of activity was calculated relative to blank control wells. […] The IC50 values were converted to pIC50 values, i.e., −log IC50 in Molar concentration.

T2 sequence (Q02763 762-1104): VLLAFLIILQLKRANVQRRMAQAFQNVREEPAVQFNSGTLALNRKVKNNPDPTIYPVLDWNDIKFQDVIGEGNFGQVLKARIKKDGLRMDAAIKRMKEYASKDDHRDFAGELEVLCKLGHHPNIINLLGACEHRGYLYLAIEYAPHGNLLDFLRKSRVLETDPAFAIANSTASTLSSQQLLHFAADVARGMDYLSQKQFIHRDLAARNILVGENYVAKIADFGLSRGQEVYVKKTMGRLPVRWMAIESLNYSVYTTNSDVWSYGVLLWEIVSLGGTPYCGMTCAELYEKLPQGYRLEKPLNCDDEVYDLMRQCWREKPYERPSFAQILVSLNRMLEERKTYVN
T3 sequence (P12931 86-536): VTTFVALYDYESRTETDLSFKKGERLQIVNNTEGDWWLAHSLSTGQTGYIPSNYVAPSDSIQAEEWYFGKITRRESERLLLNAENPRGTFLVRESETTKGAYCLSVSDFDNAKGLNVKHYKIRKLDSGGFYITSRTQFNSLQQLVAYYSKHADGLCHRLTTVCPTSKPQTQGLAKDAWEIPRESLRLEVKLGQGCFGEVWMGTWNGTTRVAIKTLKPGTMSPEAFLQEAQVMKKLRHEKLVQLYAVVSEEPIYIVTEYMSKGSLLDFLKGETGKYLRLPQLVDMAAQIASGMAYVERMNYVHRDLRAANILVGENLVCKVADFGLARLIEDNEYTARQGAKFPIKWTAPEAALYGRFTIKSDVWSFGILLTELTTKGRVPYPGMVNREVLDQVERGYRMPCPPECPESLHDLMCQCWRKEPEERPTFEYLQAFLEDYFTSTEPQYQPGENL
T4 sequence (P35968 786-1356 limits assumed): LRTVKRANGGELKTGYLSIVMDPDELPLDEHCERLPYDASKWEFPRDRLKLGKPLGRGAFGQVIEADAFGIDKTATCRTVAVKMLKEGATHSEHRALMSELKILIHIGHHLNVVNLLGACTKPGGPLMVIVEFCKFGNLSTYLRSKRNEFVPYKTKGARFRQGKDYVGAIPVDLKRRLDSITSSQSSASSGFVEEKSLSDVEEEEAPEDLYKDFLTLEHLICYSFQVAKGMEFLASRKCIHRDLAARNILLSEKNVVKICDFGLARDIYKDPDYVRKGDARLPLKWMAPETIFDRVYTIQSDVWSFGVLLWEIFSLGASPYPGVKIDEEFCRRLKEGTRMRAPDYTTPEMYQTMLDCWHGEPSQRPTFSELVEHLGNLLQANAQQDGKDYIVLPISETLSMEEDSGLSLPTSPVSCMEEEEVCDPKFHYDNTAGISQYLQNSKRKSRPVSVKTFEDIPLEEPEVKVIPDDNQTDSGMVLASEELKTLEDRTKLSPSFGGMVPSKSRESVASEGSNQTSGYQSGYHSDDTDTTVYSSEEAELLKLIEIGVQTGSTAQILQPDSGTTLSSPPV

IC50 (human EphB4) | IC50 (human TIE2) | IC50 (Src) | IC50 (VEGFR-2) | Compound
0.000316 to 0.00316 µM | 0.001 to 0.01 µM | 0.001 to 0.01 µM | – | Nc1ncc(-c2cccc(S(N)(=O)=O)c2)c2occ(-c3ccc(NC(=O)Nc4cc(C(F)(F)F)ccc4F)cc3)c12 [Id]
– | – | – | 0.000316 to 0.00316 µM | Nc1ncc(-c2cccnc2)c2occ(-c3ccc(NC(=O)Nc4cc(C(F)(F)F)ccc4F)cc3)c12 [Ie]
– | – | 0.0102 to 0.1 µM | – | Nc1ncc(-c2cccc(Cl)c2)c2occ(-c3ccc(NC(=O)Nc4cc(C(F)(F)F)ccc4F)cc3)c12 [Ia]
0.00324 to 0.0316 µM | 0.0102 to 0.1 µM | 0.102 to 1 µM | 0.00324 to 0.0316 µM | Nc1nccc2occ(-c3ccc(NC(=O)Nc4cc(C(F)(F)F)ccc4F)cc3)c12 [Ib]
– | 0.102 to 1 µM | – | – | COc1cc(-c2cnc(N)c3c(-c4ccc5[nH]ccc5c4)csc23)cc(OC)c1OC [Iaa, 4-Amino-3 (1H-Indol-5-yl)-7-(3,4,5-trimethoxyphenyl)-thieno[3,2-c]pyridine]
